According to patent US8754073B2, “Substituted piperazino-dihydrothienopyrimidines” (Boehringer Ingelheim International GmbH, priority 2007, dated 2014):

Biological target: PDE4B (Homo sapiens, UniProt Q07343)
Assay: Scintillation Proximity Assay (SPA) of PDE4B enzyme activity ([H3]-cAMP cleavage)
Format: biochemical
Conditions: test substance 1 μM; one-hour incubation of [H3]-cAMP with PDE4B enzyme at 30° C.
How it was run: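 Percent inhibition at 1 μM compound, measured against an uninhibited reaction. PDE4B hydrolysed tritiated cAMP for one hour at 30 °C, then scintillator beads were added to capture [H3]-5′-AMP. Light events were counted after 45 min bead settling.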

Chain of PDE4B (Q07343 whole entry, species assumed): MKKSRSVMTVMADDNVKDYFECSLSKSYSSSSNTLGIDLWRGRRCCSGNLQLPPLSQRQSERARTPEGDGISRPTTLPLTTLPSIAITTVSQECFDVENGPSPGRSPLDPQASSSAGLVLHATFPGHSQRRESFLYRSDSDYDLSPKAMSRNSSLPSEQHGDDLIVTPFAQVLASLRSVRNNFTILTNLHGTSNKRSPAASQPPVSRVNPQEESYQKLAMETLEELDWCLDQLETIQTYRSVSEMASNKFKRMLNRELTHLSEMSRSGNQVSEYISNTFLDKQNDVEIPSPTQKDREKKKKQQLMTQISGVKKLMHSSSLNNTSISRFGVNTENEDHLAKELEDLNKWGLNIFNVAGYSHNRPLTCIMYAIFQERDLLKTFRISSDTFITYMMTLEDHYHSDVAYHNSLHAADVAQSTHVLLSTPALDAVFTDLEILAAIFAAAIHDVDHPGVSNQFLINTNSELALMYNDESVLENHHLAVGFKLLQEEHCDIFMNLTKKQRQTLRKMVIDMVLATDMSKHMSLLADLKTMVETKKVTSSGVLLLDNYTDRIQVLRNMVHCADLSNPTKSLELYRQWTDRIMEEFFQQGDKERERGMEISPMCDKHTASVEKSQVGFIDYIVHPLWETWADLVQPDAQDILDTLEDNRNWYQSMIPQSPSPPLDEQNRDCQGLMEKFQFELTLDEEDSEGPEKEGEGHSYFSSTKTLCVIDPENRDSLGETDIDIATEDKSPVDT

| Compound | inhibition at 1 µM |
| --- | --- |
| CCc1[nH]c2ccc(F)cc2c1C1CCN(c2nc3c(c(NC4(CO)CC4)n2)[S+]([O-])CC3)CC1 (stereo not shown) [Example 37, (1-{2-[4-(2-Ethyl-5-Fluoro-1H-Indol-3-Yl)-Piperidin-1-Yl]-5-Oxo-6,7-Dihydro-5H-5λ^4-Thieno[3,2-d]Pyrimidin-4-Ylamino}-Cyclopropyl)-Methanol] | 92% |
| [O-][S+]1CCc2nc(N3CCC(c4cccc(F)c4)CC3)nc(NC3(CO)CC3)c21 (stereo not shown) [Example 9] | 95% |
| N#Cc1cccc(C2CCN(c3nc4c(c(NC5CCOCC5)n3)[S+]([O-])CC4)CC2)c1 (stereo not shown) [Example 123] | 94% |
| CC(C)c1noc(C2CCN(c3nc4c(c(N[C@@H](CO)C(C)C)n3)[S+]([O-])CC4)CC2)n1 (stereo partly shown) [Example 160] | 86% |

Same assay, conditions: test substance 1 μM; one-hour incubation with [H3]-cAMP at 30° C.

| Compound | inhibition at 1 µM |
| --- | --- |
| CC(C)(C)OC(=O)NC1CC1Nc1nc(N2CCC(c3ccc(Cl)cc3)CC2)nc2c1[S+]([O-])CC2 (stereo not shown) [Example 231, tert-butyl (2-{2-[4-(4-chlorophenyl)-piperidin-1-yl]-5-oxo-6,7-dihydro-5H-5λ^4-thieno[3,2-d]pyrimidin-4-ylamino}-cyclopropyl)-carbamidate] | 94% |
| N#CC1(c2ccc(F)cc2)CCN(c2nc3c(c(NC4(CO)CC4)n2)[S+]([O-])CC3)CC1 (stereo not shown) [Example 295] | 93% |
| CS(=O)(=O)NCC1(c2ccccc2)CCN(c2nc3c(c(NC4(CO)CC4)n2)[S+]([O-])CC3)CC1 (stereo not shown) [Example 324] | 89% |
